For five compounds, IC50 results are on record in patent US8865662B2, “Macrolides and their use” (Basilea Pharmaceutica AG, priority 2009, dated 2014).

pIC50: −log10 of the molar value.

By pIC50 is commonly meant the negative decadic logarithm of the IC50, by convention in mol/L. A higher pIC50 goes with a low IC50.

In this test the test system is human PDE4. The experiment in a line: IMAP FP enzymatic assay of PDE4 inhibition. The test is classed as biochemical. The conditions noted are these: PDE4 partially purified from human monocytic U-937 cells; fluorescently labeled cAMP substrate; 90 minutes at room temperature; fluorescence polarization. How it is done:
PDE4 specifically hydrolyzes cAMP and releases the product AMP. The potency of PDE inhibition by said agents is determined in an in vitro enzymatic assay. The assay is commercially available (IMAP™ FP assay Molecular Devices Corp. (MDS)) and is optimized for the use of human PDE4. Fluorescently labeled cAMP is hydrolyzed by PDE4 and in a second step, binding of labeled product to a large binding partner allowed product detection by fluorescence polarization (FP) measurements.
PDE4 is partially purified from undifferentiated human monocytic cells (U-937) according to Thorpy et al. 1992 (J. Pharmacol. Exp. Ther. 263: 1195). […] In addition, PDE4 preparations are validated by inhibition studies with PDE4-specific and unspecific PDE inhibitors.
Stock solutions of test compounds are made in DMSO and diluted in assay buffer (10 mM Tris-HCl, 10 mM MgCl2, 0.1% BSA 0.05% NaN3, pH 7.2) to the desired concentrations. The solutions used in the assay contained test compound in assay buffer with 2% DMSO.
10 μl of substrate (at a concentration recommended by the manufacturer) are mixed with 5 μl of appropriately diluted PDE and 5 μl of test compound solution. 5 μl of reaction buffer with 2% DMSO are used for control reactions. […] After incubation for 90 minutes at room temperature, 60 μl of binding reagent are added as specified by the manufacturer. Binding is allowed to proceed for 30 minutes and fluorescence polarization is measured. Dose dependence of PDE inhibition is measured by assaying dilution series of test compounds in duplicates. IC50 values are determined from the measured activities by curve fitting.
A general note: Fluorescence polarisation rises when a labelled molecule tumbles more slowly, as on binding a larger partner.
`CC[C@H]1OC(=O)[C@H](C)[C@@H](O[C@H]2C[C@@](C)(OC)[C@@H](O)[C@H](C)O2)[C@H](C)[C@@H](O[C@@H]2O[C@H](C)C[C@H](N(C)C(=O)N3CCOCC3)[C@H]2O)[C@](C)(OC)C[C@@H](C)C(=O)[C@H](C)[C@H]2N(CCCN(Cc3c(Cl)cncc3Cl)c3ccc(OC)c(OC4CCCC4)c3)C(=O)O[C@]12C` [Example 1] gave a pIC50 of 6.64.
`CC[C@H]1OC(=O)[C@H](C)[C@@H](O)[C@H](C)[C@@H](O[C@@H]2O[C@H](C)C[C@H](N(C)C(=O)N3CCOCC3)[C@H]2O)[C@](C)(OC)C[C@@H](C)C(=O)[C@H](C)[C@H]2N(CCCN(Cc3c(Cl)cncc3Cl)c3ccc(OC)c(OC4CCCC4)c3)C(=O)O[C@]12C` [Example 2] had a pIC50 of 6.06. Against the preceding compound, the pIC50 is 0.58 log units lower.
The result for `CC[C@H]1OC(=O)[C@H](C)[C@@H](O[C@H]2C[C@@](C)(OC)[C@@H](O)[C@H](C)O2)[C@H](C)[C@@H](O[C@@H]2O[C@H](C)C[C@H](N(C)C(=O)N3CCOCC3)[C@H]2O)[C@](C)(OC)C[C@@H](C)C(=O)[C@H](C)[C@H]2N(CCCOc3cc(C(=O)Nc4c(Cl)cncc4Cl)ccc3OC)C(=O)O[C@]12C` [Example 3] reads 6.20; that for `CC[C@H]1OC(=O)[C@H](C)[C@@H](O)[C@H](C)[C@@H](O[C@@H]2O[C@H](C)C[C@H](N(C)C(=O)N3CCOCC3)[C@H]2O)[C@](C)(OC)C[C@@H](C)C(=O)[C@H](C)[C@H]2N(CCCOc3cc(C(=O)Nc4c(Cl)cncc4Cl)ccc3OC)C(=O)O[C@]12C` [Example 4], 7.52.
Then `CC[C@H]1OC(=O)[C@H](C)[C@@H](OC(=O)CN2CCOCC2)[C@H](C)[C@@H](O[C@@H]2O[C@H](C)C[C@H](N(C)C(=O)CN(C)C)[C@H]2O)[C@](C)(OC)C[C@@H](C)C(=O)[C@H](C)[C@H]2N(CCCOc3cc(C(=O)Nc4c(Cl)cncc4Cl)ccc3OC)C(=O)O[C@]12C` [Example 5], with 6.70.
